In PubChem BioAssay AID1259407 (Chemical Carcinogenesis Research Information System (CCRIS), 2018):
Activity calls are given as the source filed them. No rule for the calls is given here.

System: CCRIS mutagenicity, Ames/micronucleus/aberration tests
Assay: CCRIS mutagenicity studies
[1] = Test System: AMES SALMONELLA TYPHIMURIUM, Strain/Indicator: TA98, Metabolic Activation: RAT, LIVER, S-9, AROCLOR 1254, Method: STANDARD PLATE
[2] = Test System: AMES SALMONELLA TYPHIMURIUM, Strain/Indicator: TA98, Metabolic Activation: NONE, Method: STANDARD PLATE
[3] = Test System: AMES SALMONELLA TYPHIMURIUM, Strain/Indicator: TA100, Metabolic Activation: NONE, Method: STANDARD PLATE

Measured: mutagenic call

O=C(O[C@@H]1Cc2c(O)cc(O)cc2O[C@H]1c1ccc(O)c(O)c1)c1cc(O)c(O)c(O)c1
inactive: Test System: Ames Salmonella typhimurium, Strain/Indicator: TA102, Metabolic Activation: None, Method: Preincubation inactive; negative | Test System: Ames Salmonella typhimurium, Strain/Indicator: TA102, Metabolic Activation: Rat, Liver, S-9, Aroclor 1254 in 0.154 M KCl, Method: Preincubation inactive; negative

CCN(CC)CC(=O)Nc1c(C(=O)c2ccccc2F)c(C)nn1C
inactive: [1] inactive; negative | Test System: AMES SALMONELLA TYPHIMURIUM, Strain/Indicator: TA100, Metabolic Activation: RAT, LIVER, S-9, AROCLOR 1254, Method: STANDARD PLATE inactive; negative
active: Test System: AMES SALMONELLA TYPHIMURIUM, Strain/Indicator: TA98, Metabolic Activation: RAT, LIVER, S-9, AROCLOR 1254, Method: PREINCUBATION active; positive | Test System: AMES SALMONELLA TYPHIMURIUM, Strain/Indicator: TA100, Metabolic Activation: RAT, LIVER, S-9, AROCLOR 1254, Method: PREINCUBATION active; positive

CC(C)=CCOc1c2occc2cc2ccc(=O)oc12
active: Test System: AMES SALMONELLA TYPHIMURIUM, Strain/Indicator: TA92, Metabolic Activation: NONE, Method: SPOT TEST active; positive | Test System: AMES SALMONELLA TYPHIMURIUM, Strain/Indicator: TA92, Metabolic Activation: RAT, LIVER, S-9, AROCLOR 1254, Method: SPOT TEST active; positive | Test System: AMES SALMONELLA TYPHIMURIUM, Strain/Indicator: TA97, Metabolic Activation: NONE, Method: SPOT TEST active; positive | Test System: AMES SALMONELLA TYPHIMURIUM, Strain/Indicator: TA97, Metabolic Activation: RAT, LIVER, S-9, AROCLOR 1254, Method: SPOT TEST active; positive | Test System: AMES SALMONELLA TYPHIMURIUM, Strain/Indicator: TA98, Metabolic Activation: NONE, Method: SPOT TEST active; positive | Test System: AMES SALMONELLA TYPHIMURIUM, Strain/Indicator: TA98, Metabolic Activation: RAT, LIVER, S-9, AROCLOR 1254, Method: SPOT TEST active; positive | Test System: AMES SALMONELLA TYPHIMURIUM, Strain/Indicator: TA100, Metabolic Activation: NONE, Method: SPOT TEST active; positive | [3] active; positive | Test System: AMES SALMONELLA TYPHIMURIUM, Strain/Indicator: TA100, Metabolic Activation: RAT, LIVER, S-9, AROCLOR 1254, Method: SPOT TEST active; positive
inactive: Test System: AMES SALMONELLA TYPHIMURIUM, Strain/Indicator: TA94, Metabolic Activation: NONE, Method: SPOT TEST inactive; negative | Test System: AMES SALMONELLA TYPHIMURIUM, Strain/Indicator: TA94, Metabolic Activation: RAT, LIVER, S-9, AROCLOR 1254, Method: SPOT TEST inactive; negative | [2] inactive; negative | Test System: AMES SALMONELLA TYPHIMURIUM, Strain/Indicator: TA98, Metabolic Activation: RAT, LIVER, S-9, PHENOBARBITAL, Method: STANDARD PLATE inactive; negative | Test System: AMES SALMONELLA TYPHIMURIUM, Strain/Indicator: TA102, Metabolic Activation: NONE, Method: SPOT TEST inactive; negative | Test System: AMES SALMONELLA TYPHIMURIUM, Strain/Indicator: TA102, Metabolic Activation: RAT, LIVER, S-9, AROCLOR 1254, Method: SPOT TEST inactive; negative

Cc1oc(=O)oc1COC(=O)[C@@H]1N2C(=O)[C@@H](NC(=O)[C@H](N)c3ccccc3)[C@H]2SC1(C)C
inactive: Test System: AMES SALMONELLA TYPHIMURIUM, Strain/Indicator: TA98, Metabolic Activation: NONE, Method: PREINCUBATION inactive; negative | Test System: AMES SALMONELLA TYPHIMURIUM, Strain/Indicator: TA98, Metabolic Activation: RAT, LIVER, S-9, PHENOBARBITAL AND 5,6-BENZOFLAVONE, Method: PREINCUBATION inactive; negative | Test System: AMES SALMONELLA TYPHIMURIUM, Strain/Indicator: TA100, Metabolic Activation: NONE, Method: PREINCUBATION inactive; negative | Test System: AMES SALMONELLA TYPHIMURIUM, Strain/Indicator: TA100, Metabolic Activation: RAT, LIVER, S-9, PHENOBARBITAL AND 5,6-BENZOFLAVONE, Method: PREINCUBATION inactive; negative | Test System: AMES SALMONELLA TYPHIMURIUM, Strain/Indicator: TA1535, Metabolic Activation: NONE, Method: PREINCUBATION inactive; negative | Test System: AMES SALMONELLA TYPHIMURIUM, Strain/Indicator: TA1535, Metabolic Activation: RAT, LIVER, S-9, PHENOBARBITAL AND 5,6-BENZOFLAVONE, Method: PREINCUBATION inactive; negative | Test System: AMES SALMONELLA TYPHIMURIUM, Strain/Indicator: TA1537, Metabolic Activation: NONE, Method: PREINCUBATION inactive; negative | Test System: AMES SALMONELLA TYPHIMURIUM, Strain/Indicator: TA1537, Metabolic Activation: RAT, LIVER, S-9, PHENOBARBITAL AND 5,6-BENZOFLAVONE, Method: PREINCUBATION inactive; negative | Test System: AMES SALMONELLA TYPHIMURIUM, Strain/Indicator: TA1538, Metabolic Activation: NONE, Method: PREINCUBATION inactive; negative | Test System: AMES SALMONELLA TYPHIMURIUM, Strain/Indicator: TA1538, Metabolic Activation: RAT, LIVER, S-9, PHENOBARBITAL AND 5,6-BENZOFLAVONE, Method: PREINCUBATION inactive; negative | Test System: E. COLI, Strain/Indicator: WP2 UVRA, Metabolic Activation: NONE, Method: PREINCUBATION inactive; negative | Test System: E. COLI, Strain/Indicator: WP2 UVRA, Metabolic Activation: RAT, LIVER, S-9, AROCLOR 1254, Method: PREINCUBATION inactive; negative

CC[C@@]1(O)C[C@H](O[C@H]2C[C@H](N(C)C)[C@H](O[C@H]3C[C@H](O)[C@H](O[C@H]4CCC(=O)[C@H](C)O4)[C@H](C)O3)[C@H](C)O2)c2c(cc3c(c2O)C(=O)c2c(O)cccc2C3=O)[C@H]1C(=O)OC
active: Test System: AMES SALMONELLA TYPHIMURIUM, Strain/Indicator: TA104, Metabolic Activation: NONE, Method: STANDARD PLATE active; positive | Test System: AMES SALMONELLA TYPHIMURIUM, Strain/Indicator: TA2637, Metabolic Activation: NONE, Method: STANDARD PLATE active; positive
inactive: Test System: AMES SALMONELLA TYPHIMURIUM, Strain/Indicator: TA97, Metabolic Activation: NONE, Method: STANDARD PLATE inactive; negative | [2] inactive; negative | [1] inactive; negative | [3] inactive; negative | Test System: AMES SALMONELLA TYPHIMURIUM, Strain/Indicator: TA1537, Metabolic Activation: NONE, Method: STANDARD PLATE inactive; negative | Test System: AMES SALMONELLA TYPHIMURIUM, Strain/Indicator: TA1538, Metabolic Activation: NONE, Method: STANDARD PLATE inactive; negative | Test System: E. COLI, Strain/Indicator: WP2 (HCR), Metabolic Activation: NONE, Method: STANDARD PLATE inactive; negative
